Data taken from patent US11896594B2, “Palatable antiparasitic formulations” (Zoetis Services LLC, priority 2018, dated 2024).

Tests used:
D. immitis = assay: Prevention of heartworm disease in dogs; format: in vivo; conditions: sensitive isolates; single dose; dogs
[1] = Moxidectin degradation in compressed tablets on accelerated stability (40° C./75% RH); format: physicochemical; conditions: for moxidectin degradation in the final tablets: 3 months 40°/75% RH; for moxidectin degradation: 40° C./75% RH; for moxidectin degradation in the finished product: 6 months accelerated stability
Excerpt: For the moxidectin granulation, four different polymers were screened. Initially, the moxidectin-polymer ratio was about 1:160 (about 21.82 w/w % polymer of intra granular portion). The polymers included hypromellose [hydroxypropylmethyl cellulose (HPMC), Poloxamer 188 (P188), ethyl cellulose, and hydroxypropyl methyl cellulose acetyl succinate MG (HPMC AS MG). […] Use of the polymers in the moxidectin granulation process provided stability to the moxidectin. […] HPMC concentration was then assessed to determine the effect on moxidectin stability in compressed tablets. Concentrations of moxidectin:HPMC were 1:20, 1:80, 1:120, and 1:160 in the moxidectin granulation. These amounts accounted for about 2.72 w/w %, 10.91 w/w %, 16.36 w/w %, and 21.82 w/w % of the moxidectin granulation, respectively. […] Therefore, the 1:80 ratio of moxidectin to HPMC was used to prepare the moxidectin granulations. The amount of HPMC in the moxidectin granulation is about 6 to 18 w/w %; the preferred amount is about 10 to 12 w/w %; and the most preferred amount is about 11 w/w %. In the final composition, the amount of HPMC is about 2.0 w/w % to about 4.0 w/w % of the total tablet weight; and more preferably, about 2.0 to 3 w/w % of the total tablet weight; and even more preferably, about 2.0 to 2.5 w/w % of the total tablet weight. To further control moxidectin degradation, the stability enhancer, meglumine, and the antioxidant, BHT, were added to the moxidectin granulation. […] Use of the higher concentration (2.72 w/w %) of meglumine was used initially to better control the acid catalyzed degradants. However, at 6 months, there was a greater increase in base catalyzed degradation of moxidectin at this concentration of meglumine. […] Similarly, moxidectin degradation was assessed using varying amounts of BHT in the moxidectin granulation.

## CO/N=C1\C[C@]2(C[C@@H]3C[C@@H](C/C=C(\C)C[C@@H](C)/C=C/C=C4\CO[C@@H]5[C@H](O)C(C)=C[C@@H](C(=O)O3)[C@]45O)O2)O[C@H](/C(C)=C/C(C)C)[C@H]1C [moxidectin]
D. immitis
  efficacy against sensitive D. immitis isolates: 100%
[1]; BHT 0 w/w % in moxidectin granulation
  moxidectin degradation in the final tablets: about 2.7%
[1]; BHT 0.095 w/w % in granulation (0.018 w/w % of tablet)
  moxidectin degradation in the final tablets: about 1.4%
[1]; BHT 0.19 w/w % in granulation (0.037 w/w % of tablet)
  moxidectin degradation in the final tablets: about 2.3%
[1]; BHT 0.38 w/w % in granulation (0.074 w/w % of tablet)
  moxidectin degradation in the final tablets: about 2.2%
[1]; HPMC AS MG in moxidectin granulation (about 1:160), 3-months
  moxidectin degradation: 12.1%
[1]; HPMC in moxidectin granulation (moxidectin-polymer about 1:160), 3-months
  moxidectin degradation: 3.6%
[1]; P188 (Poloxamer 188) in moxidectin granulation (about 1:160), 3-months
  moxidectin degradation: 5.2%
[1]; compressed tablets manufactured with HPMC, 6-month accelerated stability
  total moxidectin degradation: 5-6%
[1]; ethyl cellulose in moxidectin granulation (about 1:160), 3-months
  moxidectin degradation: 7.4%
[1]; meglumine 0 w/w % in moxidectin granulation
  moxidectin degradation in the final tablets: about 2.4%
[1]; meglumine 1.36 w/w % in granulation (0.27 w/w % of tablet)
  moxidectin degradation in the final tablets: about 1.0%
[1]; meglumine 2.72 w/w % in granulation (0.54 w/w % of tablet)
  moxidectin degradation in the final tablets: about 0.7%
[1]; moxidectin:HPMC 1:20 (2.72 w/w % of granulation)
  moxidectin degradation in the finished product: 5.04%
[1]; moxidectin:HPMC 1:80 (10.91 w/w % of granulation)
  moxidectin degradation in the finished product: 2.41%
[1]; moxidectin:HPMC 1:120 (16.36 w/w % of granulation)
  moxidectin degradation in the finished product: 2.26%
[1]; moxidectin:HPMC 1:160 (21.82 w/w % of granulation)
  moxidectin degradation in the finished product: 1.75%
[1]; without the use of a polymer, compressed tablets, 2-months
  moxidectin degradation: 16.7%
